Test [1] addresses T1, PhdC (Mycolicibacterium fortuitum, UniProt A0A0N9XAG5).
T1 construct: gene XA26_16660; homodimer, site at dimer interface
T1 sequence (A0A0N9XAG5 2-155): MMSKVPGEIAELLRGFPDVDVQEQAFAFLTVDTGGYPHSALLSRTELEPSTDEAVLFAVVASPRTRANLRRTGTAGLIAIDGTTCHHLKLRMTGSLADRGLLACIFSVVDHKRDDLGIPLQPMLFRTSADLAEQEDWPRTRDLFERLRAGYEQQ
The test is described as follows: differential scanning fluorimetry (SUPR-DSF); Tm of apo to Tm of FMN-bound. The settings on record: 100 mM KPi, pH 7.5; ramp 1°C/min. The format is binding. In general terms: Differential scanning fluorimetry follows unfolding on heating by fluorescence.

The target in test [2] is T1, PhdC. The test is described as follows: isothermal titration calorimetry. The format is binding. In general terms: ITC needs no label: the signal is the heat of the interaction.

Molecules are shown by their SMILES.

As a reminder, the Tm is the temperature at the midpoint of the melting transition. A word on the Kd: it is a measure of binding affinity in units of concentration. For the molecule `Cc1cc2nc3c(=O)[nH]c(=O)nc-3n(C[C@H](O)[C@H](O)[C@H](O)COP(=O)(O)O)c2cc1C` [FMN], in test [1], the Tm was 63.6 to 66.5 °C. In test [2], this molecule returned a Kd of 17.8 ± 0.26 µM.

(Values after article PMC13040415, “Structure and Mechanism of PhdC, a Prenylated‐Flavin Maturase” (Proteins, 2025).)
